This is an account of results in PubChem BioAssay AID1890 (The Scripps Research Institute Molecular Screening Center, 2009).

The term IC50 denotes the concentration that inhibits the measured activity by half.

Active and inactive are the calls of the source. How the calls were made is not given here.

This assay has as its target Replicase polyprotein 1ab (Severe acute respiratory syndrome coronavirus) (UniProt P0C6X7). As to the kind of experiment: SARS 3CLpro cleavage inhibition IC50 – biochemical, quenched FRET, dose response (AID 1890). The note with it: purified 3CLpro, quenched FRET peptide cleavage.
As for `CC(=O)NC1C(=O)N(CCN2CCOCC2)c2ccc(Br)cc21` (centres undefined), the IC50 is 7.58 µM.

With `O=C(NCc1ccco1)C(c1ccco1)N(C(=O)Cn1nnc2ccccc21)c1ccc2c(c1)CCC2` (centres undefined), the IC50 result was “inactive”.

With `O=C(Nc1ccccc1)NN(C(=O)CCl)c1ccccc1`, the IC50 is 9.64 µM.

Turning to `CCOc1ccc2c(c1)C(=O)C(=O)N2CC1COc2ccccc2O1` (centres undefined), the IC50 is 4.29 µM.

With `O=C(O)COc1ccc(Br)cc1C(c1c(C(=O)O)[nH]c2ccccc12)c1c(C(=O)O)[nH]c2ccccc12`, the IC50 is > 59.6 µM (inactive).

With `O=C1NC(=O)N(c2ccccc2F)C(=O)/C1=C/c1cn(CC(=O)N2CCOCC2)c2ccccc12`, the IC50 entry was “inactive”.

As to `CC(=O)n1cc(N(C(=O)CCl)c2ccc([N+](=O)[O-])cc2)c2ccccc21`, the IC50 result is “inactive”.

Consider `O=C(O)c1ccc2ncsc2c1`, for which the IC50 result is “inactive”.

Consider `CC(C)c1ccc(N(C(=O)c2csnn2)C(C(=O)NC2CCCC2)c2cccnc2)cc1` (centres undefined), for which the IC50 result was “inactive”.
